# Patent publication US20120094985A1, “PHARMACEUTICAL COMPOSITIONS COMPRISING CHLOROPHENYL PIPERAZINE DERIVED COMPOUNDS AND USE OF THE COMPOUNDS IN PRODUCING MEDICAMENTS” (KAOHSIUNG MEDICAL UNIVERSITY, priority 2009, published 2012)
# Columns and labels:
# Male ddk mice = assay: Forced swim test (FST), mean immobility time; type: in vivo, mouse; conditions: for immobility period in FST: 4 mg/kg each (FIG. 2)
# Experimental: Male ddk mice weighing between 22 and 30 g, bred in the Center Animal House facility of Kaohsiung Medical University (KMU), Taiwan, were used. These experimental animals were housed under standard laboratory conditions and maintained on natural light and dark cycle, and had free access to food and water. Animals were acclimatized to laboratory conditions before the experiment. Each animal was used only once. All the experiments were carried out between 9 a.m. and 3 p.m. The experimental protocols were approved by the Animal Center of KMU, Taiwan.
# Forced swim would induce immobility of an animal to simulate the phenomenon of human depression (Renard et al., 2003) and antidepressant was used to reverse this phenomenon (Kulkarni and Mehta, 1985). This test procedure was carried out according to the previous animal model (Reddy et al., 1998).
# The doses of the drugs used were selected according to the previous studies (Patil et al., 2005). Different doses were administrated intraperitoneally in a fixed volume of 1 ml/100 g body weight for 30 minutes before the animals were subjected to test.
# The possible participation of the NO/cGMP pathway in the antidepressant effect of Pulmodil was investigated. Mice were pretreated with NO/cGMP pathway regulation related drugs ([…], L-arginine, methylene blue or 7-nitroindazole), and then Pulmodil or vehicle was injected to the animal. Forced swim test was performed 30 minutes later.
# The possible participation of the 5-HT pathway in the antidepressant effect of Pulmodul was investigated. Mice were pretreated with 5-HT pathway related drugs (DOI, m-CPP or SB200646), and then Pulmodil or vehicle was injected to the animal. Forced swim test was performed 30 minutes later.
# Results expressed as mean (sec.)±S.E.M. and the data was analyzed using One-Way or Two-Way Analysis of Variance (ANOVA) where appropriate. If any statistically significant change was found, post-hoc comparisons were performed using a Dunnett's test. Data was deemed significant when P<0.05 was considered statistically significant.
# [1] = system: Male ddk mice pre-treated with Reserpine; assay: Reserpine-induced forced swimming immobility; type: in vivo, mouse; conditions: for Reserpine-induced immobility: Reserpine 2 mg/kg pre-treatment, then 4 mg/kg, p<0.05 (FIG. 4)
# Experimental: Male ddk mice weighing between 22 and 30 g, bred in the Center Animal House facility of Kaohsiung Medical University (KMU), Taiwan, were used. […] Animals were acclimatized to laboratory conditions before the experiment. Each animal was used only once. All the experiments were carried out between 9 a.m. and 3 p.m. […] This test procedure was carried out according to the previous animal model (Reddy et al., 1998). […] Mice were pretreated with NO/cGMP pathway regulation related drugs (Reserpine, L-arginine, methylene blue or 7-nitroindazole), and then Pulmodil or vehicle was injected to the animal. Forced swim test was performed 30 minutes later.
# [2] = system: cGMP concentration of mouse brain; assay: cGMP analysis of mouse brain (ELISA); type: in vivo; conditions: 30 minutes post injection, basal (vehicle) 0.131±0.003
# Experimental: Male mice were given Pulmodil with intraperitoneal (i.p.) injection, where mice were divided into three groups, and 0.5, 1 and 2 mg/kg Pulmodil respectively for each group. After 30-minute injection, mice were anesthetized with […] chloral hydrate, and then were fixed on the stereotaxic frame (Narishige, Japan) to obtain mice brain. The isolated brain was homogenized and extracted with 0.1 N HCl. The extract was centrifuged at 4° C., at 14,000 rpm for 30 minutes, and supernatant was collected to determine cGMP concentration, which was determined with commercial enzyme-linked immunosorbent assay (ELISA) kit (Assay Designs) by acetylation procedure.
smiles,measurement,setting,value
"CN(C)c1ccc2nc3ccc(=[N+](C)C)cc-3sc2c1 [Methylene blue, methylene blue, reference compound]",immobility time per se,Male ddk mice; methylene blue 10 mg/kg i.p. alone (FIG. 6),did not affect the immobility time
"O=c1n(CCCN2CCN(c3cccc(Cl)c3)CC2)nc2ccccn12 [Trazodone, reference compound]",Reserpine-induced immobility,[1],significantly inhibited
same,immobility period in FST,Male ddk mice,significantly decreased the immobility period
"Cl.Cn1c(=O)c2c(ncn2CCN2CCN(c3ccccc3Cl)CC2)n(C)c1=O [Pulmodil, 7-[2-[4-(2-chlorophenyl)piperazinyl]ethyl]-1,3-dimethylxanthine.acid]",cGMP concentration in the brain,[2]; 0.5 mg/kg i.p.,0.201 ± 0.003 fmol/µg
same,cGMP concentration in the brain,[2]; 1 mg/kg i.p.,0.293 ± 0.023 fmol/µg
same,cGMP concentration in the brain,[2]; 2 mg/kg i.p.,0.288 ± 0.0234 fmol/µg
same,immobility period in mouse FST,"Male ddk mice; 4, 8 and 16 mg/kg, compared with vehicle, p<0.05 (FIG. 1)",produced a decrease in immobility period
same,immobility time after 7-nitroindazole pre-treatment,"Male ddk mice; 7-nitroindazole 25 mg/kg i.p. for 30 minutes, then Pulmodil 8 mg/kg i.p., P<0.05 (FIG. 7)",shortened the immobility time
same,immobility time after DOI pre-treatment,"Male ddk mice; DOI 4 mg/kg i.p. for 30 minutes, then Pulmodil 4 or 8 mg/kg i.p., in comparison with FIG. 1, p<0.05 (FIG. 8)",prolonged the immobility time
same,immobility period after L-arginine pre-treatment,"Male ddk mice; L-arginine 750 mg/kg i.p. for 30 minutes, then Pulmodil 16 mg/kg i.p., compared to Pulmodil without L-arginine (FIG. 5)",increase in immobility period
same,immobility time after SB200646 pre-treatment,"Male ddk mice; SB200646 4 mg/kg i.p., then Pulmodil 4 or 8 mg/kg i.p., p<0.05 (FIG. 10)",significantly reduced this immobility time
same,immobility time after m-CPP pre-treatment,"Male ddk mice; m-CPP 4 mg/kg i.p., then Pulmodil 4 or 8 mg/kg i.p., in comparison with FIG. 1, p<0.05 (FIG. 9)",shortened this immobility time
same,immobility time after methylene blue pre-treatment,"Male ddk mice; methylene blue 10 mg/kg i.p. for 30 minutes, then Pulmodil 8 mg/kg i.p., p<0.05 (FIG. 6)",significantly decreased the immobility time
"Cl.Cn1ccc2cc(NC(=O)Nc3cccnc3)ccc21 [SB200646, N-(1-methyl-1H-5-indolyl)-N′-(3-pyridinyl)urea hydrochloride, reference compound]",immobility time per se,Male ddk mice; SB200646 4 mg/kg i.p. alone (FIG. 10),did not affect the immobility time
"COc1cc(CC(C)N)c(OC)cc1I (stereo not drawn) [DOI, 1-(2,5-dimethoxy-4-iodophenyl)-2-aminopropane, reference compound]",immobility per se,Male ddk mice; DOI 4 mg/kg i.p. alone (FIG. 8),did not affect the immobility
COC(=O)[C@H]1[C@H]2C[C@@H]3c4[nH]c5cc(OC)ccc5c4CCN3C[C@H]2C[C@@H](OC(=O)c2cc(OC)c(OC)c(OC)c2)[C@@H]1OC [Reserpine],"immobility period in mouse FST, Reserpine alone","[1]; Reserpine 2 mg/kg, p<0.05 (FIG. 3)",increased immobility period
"CCCc1nn(C)c2c(=O)[nH]c(-c3cc(S(=O)(=O)N4CCN(C)CC4)ccc3OCC)nc12 [Sildenafil, reference compound]",Reserpine-induced immobility,[1],significantly inhibited
same,immobility period in FST,Male ddk mice,could not significantly affect immobility time
"Clc1cccc(N2CCNCC2)c1 [m-CPP, meta-chlorophenylpiperazine, reference compound]",immobility time per se,"Male ddk mice; m-CPP 4 mg/kg i.p. alone, p<0.05 vs vehicle (FIG. 9)",mildly increased the immobility time
"Cn1c(=O)c2c(ncn2CCN2CCN(c3ccccc3Cl)CC2)n(C)c1=O [xanthine-based compound, 7-[2-[4-(2-chlorophenyl)piperazinyl]ethyl]-1,3-dimethylxanthine]",immobility period after Reserpine pre-treatment,"[1]; Reserpine 2 mg/kg for 4 hours, then 2, 3, 4 or 8 mg/kg, p<0.05 vs Reserpine (FIG. 3)",dose-dependently reduced the immobility period
same,Reserpine-induced immobility,[1],significantly inhibited
